In article PMC9780108, “An intrinsically disordered antimicrobial peptide dendrimer from stereorandomized virtual screening” (Cell Reports. Physical Science, 2022):
In brackets after ≈: the same amount, converted by molar mass. Residues, ends and D or L forms follow the SMILES beside them.

Assays:
S. maltophilia = settings: pH 7.4
P. aeruginosa ZEM9A = settings: ZEM9A, pH 7.4
E. cloacae = settings: pH 7.4
HEK293 cell line = assay type: cell-based; settings: 48 h
Procedure, shortened: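 HEK293 cells seeded at 2 × 10³/well, incubated 48 h at 37 °C with serially diluted compounds (stock 2 mg/mL) in DMEM with 10% FBS. AlamarBlue added at 10% final for 3–5 h; fluorescence ex 560/em 590 nm, normalized to untreated cells.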

[1] = tested on: S aureus COL (methicillin-resistant Staphylococcus aureus)
P. aeruginosa PA14 = settings: PA14, pH 7.4
K. pneumoniae OXA-48 = settings: OXA-48, pH 7.4
P. aeruginosa ZEM-1A = settings: ZEM-1A, pH 7.4
B. cenocepacia = settings: pH 7.4
S. aureus Newman = settings: Newman, pH 7.4

MIC, S. maltophilia (S. maltophilia): 8 µg/mL (≈ 1.76 µM)
MIC, P. aeruginosa ZEM9A (P. aeruginosa ZEM9A): 16 µg/mL (≈ 3.53 µM)
MIC, E. cloacae (E. cloacae): 8 µg/mL (≈ 1.76 µM)
MIC at pH 5.0, A. baumannii ATCC 19606 (A. baumannii ATCC 19606; ATCC 19606, pH 5): 8 μg/mL
MIC at pH 7.4, A. baumannii ATCC 19606 (A. baumannii ATCC 19606; ATCC 19606, pH 7.4): 8 μg/mL
MIC at pH 8.0, A. baumannii ATCC 19606 (A. baumannii ATCC 19606; ATCC 19606, pH 8): 1 μg/mL
MIC at pH 5.0, P. aeruginosa PAO1 (P. aeruginosa PAO1; PAO1, pH 5): 16 μg/mL
MIC at pH 7.4, P. aeruginosa PAO1 (P. aeruginosa PAO1; PAO1, pH 7.4): 4 μg/mL
MIC at pH 8.0, P. aeruginosa PAO1 (P. aeruginosa PAO1; PAO1, pH 8): 1 μg/mL
MIC at pH 5.0, E. coli W3110 (E. coli W3110; W3110, pH 5): 32 μg/mL
MIC at pH 7.4, E. coli W3110 (E. coli W3110; W3110, pH 7.4): 8 μg/mL
MIC at pH 8.0, E. coli W3110 (E. coli W3110; W3110, pH 8): 1–2 μg/mL
MIC at pH 5.0, S aureus COL ([1]; COL (methicillin-resistant, pH 5)): > 64 μg/mL
MIC at pH 7.4, S aureus COL ([1]; COL (methicillin-resistant, pH 7.4)): > 64 μg/mL
MIC at pH 8.0, S aureus COL ([1]; COL (methicillin-resistant, pH 8)): 2 μg/mL
MIC, P. aeruginosa PA14 (P. aeruginosa PA14): 2 to 4 µg/mL
MIC, K. pneumoniae OXA-48 (K. pneumoniae OXA-48): >64 µg/mL
MIC at pH 5.0, K. pneumoniae NCTC 418 (K. pneumoniae NCTC 418; NCTC 418, pH 5): > 64 μg/mL
MIC at pH 7.4, K. pneumoniae NCTC 418 (K. pneumoniae NCTC 418; NCTC 418, pH 7.4): > 64 μg/mL
MIC at pH 8.0, K. pneumoniae NCTC 418 (K. pneumoniae NCTC 418; NCTC 418, pH 8): 4 μg/mL
MIC, P. aeruginosa ZEM-1A (P. aeruginosa ZEM-1A): 4 µg/mL (≈ 0.882 µM)
MIC, B. cenocepacia (B. cenocepacia): >64 µg/mL
MIC, S. aureus Newman (S. aureus Newman): >64 µg/mL
Structure (SMILES): CC(C)C[C@H](NC(=O)[C@H](CCCCN)NC(=O)[C@H](CCCCNC(=O)[C@H](CC(C)C)NC(=O)[C@H](CCCCN)NC(=O)[C@H](CCCCNC(=O)[C@H](CC(C)C)NC(=O)[C@H](CCCCN)NC(=O)[C@H](CCCCNC(=O)[C@H](CC(C)C)NC(=O)[C@@H](N)CCCCN)NC(=O)[C@H](CC(C)C)NC(=O)[C@@H](N)CCCCN)NC(=O)[C@H](CC(C)C)NC(=O)[C@H](CCCCN)NC(=O)[C@H](CCCCNC(=O)[C@H](CC(C)C)NC(=O)[C@@H](N)CCCCN)NC(=O)[C@H](CC(C)C)NC(=O)[C@@H](N)CCCCN)NC(=O)[C@H](CC(C)C)NC(=O)[C@H](CCCCN)NC(=O)[C@H](CCCCNC(=O)[C@H](CC(C)C)NC(=O)[C@H](CCCCN)NC(=O)[C@H](CCCCNC(=O)[C@H](CC(C)C)NC(=O)[C@@H](N)CCCCN)NC(=O)[C@H](CC(C)C)NC(=O)[C@@H](N)CCCCN)NC(=O)[C@H](CC(C)C)NC(=O)[C@H](CCCCN)NC(=O)[C@H](CCCCNC(=O)[C@H](CC(C)C)NC(=O)[C@@H](N)CCCCN)NC(=O)[C@H](CC(C)C)NC(=O)[C@@H](N)CCCCN)C(N)=O [L-G3KL, reference compound] (HELM PEPTIDE1{K.L.K.K.L.K.K.L.K.K.L.[am]}|PEPTIDE2{K.L}|PEPTIDE3{K.L.K.K.L.K.K.L}|PEPTIDE4{K.L}|PEPTIDE5{K.L.K.K.L}|PEPTIDE6{K.L}|PEPTIDE7{K.L.K.K.L}|PEPTIDE8{K.L}$PEPTIDE1,PEPTIDE2,3:R3-2:R2|PEPTIDE3,PEPTIDE4,3:R3-2:R2|PEPTIDE5,PEPTIDE6,3:R3-2:R2|PEPTIDE7,PEPTIDE8,3:R3-2:R2|PEPTIDE1,PEPTIDE7,6:R3-5:R2|PEPTIDE1,PEPTIDE3,9:R3-8:R2|PEPTIDE3,PEPTIDE5,6:R3-5:R2$$$V2.0)
IC50 HEK293 (HEK293 cell line): 460 ± 17 µg/mL (≈ 101 µM)
